Experimental data as given in DBAASP.
Converted amounts (≈) assume the structure as drawn.

Columns and labels:
Assay in all cases: ≥ marks a high value that may be exact or a test limit, other limits are often not marked, values filed in µg/mL are converted to µM
[1] = system: Bacillus subtilis
[2] = system: Shigella dysenteriae
[3] = system: Proteus mirabilis
[4] = system: Staphylococcus aureus
[5] = system: Staphylococcus epidermidis
[6] = system: Salmonella typhimurium
[7] = system: Pseudomonas aeruginosa
[8] = system: Escherichia coli
[9] = system: Micrococcus luteus
[10] = system: Klebsiella pneumoniae
[11] = system: Staphylococcus aureus ATCC 2592
[12] = system: Candida albicans ATCC 2002
[13] = system: Escherichia coli ATCC 25922
[14] = system: Listeria innocua
[15] = system: Streptococcus uberis
[16] = system: Bacillus cereus
[17] = system: Leuconostoc lactis
[18] = system: Pasteurella multocida
[19] = system: Enterococcus faecalis
[20] = system: Enterococcus faecalis ATCC 29212
[21] = system: Staphylococcus epidermidis ATCC 12228
[22] = system: Candida parapsilosis ATCC 22019
[23] = system: Staphylococcus aureus ATCC 25923
[24] = system: Pseudomonas aeruginosa PAO1
[25] = system: Candida albicans
[26] = system: Escherichia coli MG1655
[27] = system: Pseudomonas aeruginosa Ps4

**Q.** What does the source list for `CC[C@H](C)[C@@H]1NC(=O)[C@H](C)NC(=O)[C@@H](NC(=O)[C@H](CCCCN)NC(=O)[C@@H](NC(=O)[C@H](CO)NC(=O)[C@@H]2CCCN2C(=O)[C@H](CC(C)C)NC(=O)[C@@H](NC(=O)[C@H](CCCCN)NC(=O)[C@H](CO)NC(=O)[C@H](C)NC(=O)[C@@H](NC(=O)[C@H](CCCCN)NC(=O)[C@H](Cc2ccccc2)NC(=O)[C@H](CC(C)C)NC(=O)[C@H](C)NC(=O)CNC(=O)[C@H](CC(C)C)NC(=O)[C@@H](N)Cc2ccccc2)C(C)C)C(C)C)C(C)C)CSSC[C@@H](C(=O)O)NC(=O)[C@H](CCCCN)NC(=O)[C@H](CCCCN)NC(=O)[C@H]([C@@H](C)O)NC1=O` [FLGALFKVASKVLPSVKCAITKKC]?
**A.** MIC [1]: 2.47 µM (≈ 6.3 µg/mL); MIC [2]: 19.6 µM (≈ 50 µg/mL); MIC [3]: ≥ 78.4 µM; MIC [4]: 1.21 µM (≈ 3.1 µg/mL); MIC [5]: 4.9 µM (≈ 12.5 µg/mL); MIC [6]: ≥ 39.2 µM; MIC [7]: 78.4 µM (≈ 200 µg/mL); MIC [8]: 4.9 µM (≈ 12.5 µg/mL); MIC [9]: 2.47 µM (≈ 6.3 µg/mL); MIC [10]: 9.8 µM (≈ 25 µg/mL)

**Q.** With `CC[C@H](C)[C@H](NC(=O)[C@@H](NC(=O)[C@@H]1CCCN1C(=O)[C@H](CC(C)C)NC(=O)[C@@H](N)Cc1ccccc1)[C@@H](C)CC)C(=O)N[C@@H](C)C(=O)N[C@@H](CCCCN)C(=O)N[C@@H](CC(C)C)C(=O)N[C@@H](CC(C)C)C(=O)NCC(=O)NCC(=O)N[C@@H](CC(C)C)C(=O)N[C@@H](CC(C)C)C(N)=O` [FLPIIAKLLGGLL] as the compound, how does the MIC [11] read?
**A.** 3.66 µM (≈ 5 µg/mL)

**Q.** What about the MIC [12] of the same compound?
**A.** 18.3 µM (≈ 25 µg/mL)

**Q.** What about the MIC [13] of the same compound?
**A.** 21.9 µM (≈ 30 µg/mL)

**Q.** `CC[C@H](C)[C@H](NC(=O)[C@@H](NC(=O)CNC(=O)[C@H](C)NC(=O)[C@@H](NC(=O)[C@H](CCCCN)NC(=O)[C@H](CCCCN)NC(=O)[C@H](CC(C)C)NC(=O)[C@H](Cc1ccccc1)NC(=O)[C@H](CC(=O)O)NC(=O)[C@@H](NC(=O)[C@H](Cc1ccccc1)NC(=O)CN)C(C)C)C(C)C)[C@@H](C)O)C(=O)N[C@@H](C)C(=O)N[C@@H](CC(N)=O)C(=O)N[C@H](C(=O)N[C@H](C(=O)N[C@H](C(N)=O)[C@@H](C)O)C(C)C)C(C)C` [GFVDFLKKVAGTIANVVT] was tested. Which MIC [14] did it give?
**A.** ≥ 53.2 µM

**Q.** And the MIC [15]?
**A.** 13.3 µM (≈ 25 µg/mL)

**Q.** And the MIC [16]?
**A.** ≥ 53.2 µM

**Q.** And the MIC [4]?
**A.** 53.2 µM (≈ 99.9 µg/mL)

**Q.** And the MIC [17]?
**A.** ≥ 53.2 µM

**Q.** What about the MIC [5] of the same compound?
**A.** 26.6 µM (≈ 50 µg/mL)

**Q.** What about the MIC [18] of the same compound?
**A.** ≥ 53.2 µM

**Q.** What about the MIC [19] of the same compound?
**A.** ≥ 53.2 µM

**Q.** What about the MIC [8] of the same compound?
**A.** > 53.2 µM

**Q.** And the MIC [9]?
**A.** ≥ 53.2 µM

**Q.** How did the MIC [17] turn out when `CC[C@H](C)[C@H](NC(=O)CNC(=O)[C@@H](NC(=O)[C@@H](NC(=O)[C@H](Cc1cnc[nH]1)NC(=O)[C@H](CCCCN)NC(=O)[C@H](C)NC(=O)[C@H](Cc1ccccc1)NC(=O)[C@H](CC(=O)O)NC(=O)[C@H](CC(C)C)NC(=O)[C@H](CC(C)C)NC(=O)CN)C(C)C)[C@@H](C)CC)C(=O)N[C@@H](C)C(=O)N[C@@H](CO)C(=O)N[C@@H](CCCCN)C(=O)N[C@@H](CC(C)C)C(N)=O` [GLLDFAKHVIGIASKL] was run?
**A.** ≥ 50 µM

**Q.** What about the MIC [20] of the same compound?
**A.** 100 µM (≈ 168 µg/mL)

**Q.** How did the MIC [14] turn out when `CC[C@H](C)[C@H](NC(=O)CNC(=O)[C@H](CO)NC(=O)[C@@H](NC(=O)[C@@H](NC(=O)CNC(=O)[C@H](CCCCN)NC(=O)[C@H](C)NC(=O)[C@H](CC(C)C)NC(=O)[C@H](CO)NC(=O)[C@H](CCC(=O)O)NC(=O)[C@H](CC(C)C)NC(=O)[C@H](CO)NC(=O)[C@H](CCC(=O)O)NC(=O)[C@H](CC(C)C)NC(=O)[C@H](CCCCN)NC(=O)[C@H](CCC(=O)O)NC(=O)[C@H](CCCCN)NC(=O)[C@@H](NC(=O)[C@@H](NC(=O)[C@H](CCC(N)=O)NC(=O)[C@H](CC(C)C)NC(=O)[C@H](CC(C)C)NC(=O)CN)[C@@H](C)O)[C@@H](C)CC)[C@@H](C)CC)C(C)C)C(=O)N[C@@H](CCC(N)=O)C(=O)N[C@@H](C)C(N)=O` [GLLQTIKEKLESLESLAKGIVSGIQA] was run?
**A.** ≥ 36.7 µM

**Q.** What about the MIC [15] of the same compound?
**A.** 9.17 µM (≈ 25 µg/mL)

**Q.** What about the MIC [16] of the same compound?
**A.** ≥ 36.7 µM

**Q.** And the MIC [4]?
**A.** > 36.7 µM

**Q.** What about the MIC [17] of the same compound?
**A.** ≥ 36.7 µM

**Q.** What about the MIC [5] of the same compound?
**A.** ≥ 36.7 µM

**Q.** And the MIC [18]?
**A.** ≥ 36.7 µM

**Q.** What about the MIC [19] of the same compound?
**A.** ≥ 36.7 µM

**Q.** What about the MIC [8] of the same compound?
**A.** > 36.7 µM

**Q.** And the MIC [9]?
**A.** ≥ 36.7 µM

**Q.** Which MIC [14] does the source give for `CC[C@H](C)[C@H](NC(=O)[C@@H](NC(=O)[C@@H]1CCCN1C(=O)[C@@H](NC(=O)[C@@H](NC(=O)[C@H](Cc1cnc[nH]1)NC(=O)[C@@H]1CCCN1C(=O)[C@H](CC(C)C)NC(=O)[C@@H](NC(=O)[C@H](Cc1cnc[nH]1)NC(=O)[C@H](CCCCN)NC(=O)[C@H](C)NC(=O)[C@@H](NC(=O)[C@H](CO)NC(=O)[C@H](CO)NC(=O)[C@H](CC(C)C)NC(=O)[C@H](CO)NC(=O)[C@H](CO)NC(=O)[C@H](CC(C)C)NC(=O)[C@H](CC(C)C)NC(=O)CN)C(C)C)C(C)C)C(C)C)C(C)C)C(C)C)C(=O)N[C@@H](C)C(=O)N[C@@H](CCC(=O)O)C(=O)N[C@@H](Cc1cnc[nH]1)C(=O)N[C@@H](CC(C)C)C(N)=O` [GLLSSLSSVAKHVLPHVVPVIAEHL] here?
**A.** ≥ 38.4 µM

**Q.** What about the MIC [15] of the same compound?
**A.** ≥ 38.4 µM

**Q.** What about the MIC [16] of the same compound?
**A.** 19.2 µM (≈ 50 µg/mL)

**Q.** What about the MIC [4] of the same compound?
**A.** 38.4 µM (≈ 100 µg/mL)

**Q.** What about the MIC [17] of the same compound?
**A.** 4.61 µM (≈ 12 µg/mL)

**Q.** What about the MIC [5] of the same compound?
**A.** 9.6 µM (≈ 25 µg/mL)

**Q.** What about the MIC [18] of the same compound?
**A.** 9.6 µM (≈ 25 µg/mL)

**Q.** And the MIC [8]?
**A.** 19.2 µM (≈ 50 µg/mL)

**Q.** What about the MIC [9] of the same compound?
**A.** 0.154 µM (≈ 0.4 µg/mL)

**Q.** Which MIC [21] does the source give for `CC[C@H](C)[C@H](N)C(=O)N[C@H](C(=O)N1CCC[C@H]1C(=O)N[C@@H](Cc1ccccc1)C(=O)N[C@@H](CC(C)C)C(=O)N[C@@H](CC(C)C)C(=O)NCC(=O)N[C@@H](CCSC)C(=O)N[C@H](C(=O)N1CCC[C@H]1C(=O)N[C@@H](CCCCN)C(=O)N[C@@H](CC(C)C)C(=O)N[C@H](C(=O)N[C@H]1CSSC[C@@H](C(=O)O)NC(=O)[C@H](CCCCN)NC(=O)[C@H](CCCCN)NC(=O)[C@H]([C@@H](C)O)NC(=O)[C@H]([C@@H](C)CC)NC(=O)[C@H](CC(C)C)NC1=O)C(C)C)C(C)C)C(C)C` [IVPFLLGMVPKLVCLITKKC] here?
**A.** 4 µM (≈ 8.86 µg/mL)

**Q.** And the MIC [13]?
**A.** 64 µM (≈ 142 µg/mL)

**Q.** What about the MIC [22] of the same compound?
**A.** 16 µM (≈ 35.4 µg/mL)

**Q.** Which MIC [14] does the source give for `CC[C@H](C)[C@H](NC(=O)[C@@H](NC(=O)[C@H](C)NC(=O)[C@H](C)NC(=O)[C@@H](NC(=O)[C@H](CCCCN)NC(=O)[C@H](CCCCN)NC(=O)[C@@H](NC(=O)[C@@H](NC(=O)[C@H](C)NC(=O)[C@H](Cc1ccccc1)NC(=O)[C@H](CC(C)C)NC(=O)[C@@H](N)CCCCN)C(C)C)[C@@H](C)CC)C(C)C)C(C)C)C(=O)N[C@@H](CCCN=C(N)N)C(=O)N[C@@H](CCCN=C(N)N)C(=O)N[C@@H](CC(C)C)C(N)=O` [KLFAVIKKVAAVIRRL] here?
**A.** 27.4 µM (≈ 50 µg/mL)

**Q.** And the MIC [15]?
**A.** ≥ 54.8 µM

**Q.** What about the MIC [16] of the same compound?
**A.** ≥ 54.8 µM

**Q.** And the MIC [4]?
**A.** > 54.8 µM

**Q.** And the MIC [17]?
**A.** 6.57 µM (≈ 12 µg/mL)

**Q.** And the MIC [5]?
**A.** ≥ 54.8 µM

**Q.** And the MIC [18]?
**A.** ≥ 54.8 µM

**Q.** What about the MIC [8] of the same compound?
**A.** > 54.8 µM

**Q.** What about the MIC [9] of the same compound?
**A.** ≥ 54.8 µM

**Q.** Which MIC [23] does the source give for `CSCC[C@H](NC(=O)[C@@H](NC(=O)[C@@H](N)CCCCN)C(C)C)C(=O)N[C@@H](CCCN=C(N)N)C(=O)N[C@@H](CCCCN)C(=O)N[C@H](C(=O)N[C@@H](CC(C)C)C(=O)NCC(=O)N[C@@H](Cc1ccc(O)cc1)C(=O)N[C@@H](CC(C)C)C(=O)N[C@@H](CCCN=C(N)N)C(=O)N[C@@H](CC(N)=O)C(=O)N[C@H](C(=O)N[C@@H](Cc1ccc(O)cc1)C(=O)N[C@@H](CCCCN)C(N)=O)C(C)C)C(C)C` [KVMRKVLGYLRNVYK] here?
**A.** 128 µM (≈ 239 µg/mL)

**Q.** And the MIC [24]?
**A.** 32 µM (≈ 59.7 µg/mL)

**Q.** And the MIC [25]?
**A.** 32 µM (≈ 59.7 µg/mL)

**Q.** What about the MIC [26] of the same compound?
**A.** 2 µM (≈ 3.73 µg/mL)

**Q.** For `CC[C@H](C)[C@H](NC(=O)[C@H](CC(N)=O)NC(=O)[C@H](CCCN=C(N)N)NC(=O)[C@H](CCC(N)=O)NC(=O)[C@H](Cc1c[nH]c2ccccc12)NC(=O)[C@H](Cc1ccccc1)NC(=O)[C@@H](N)CCCN=C(N)N)C(=O)N[C@@H](CCCN=C(N)N)C(=O)N[C@@H](CCCCN)C(=O)N[C@H](C(=O)N[C@@H](CCCN=C(N)N)C(=O)N[C@@H](CCCN=C(N)N)C(N)=O)C(C)C` [RFWQRNIRKVRR], which MIC [27] is on record?
**A.** ≥ 146 µM

**Q.** `CC[C@H](C)[C@H](NC(=O)[C@H](CC(N)=O)NC(=O)[C@H](CCCN=C(N)N)NC(=O)[C@H](CCC(N)=O)NC(=O)[C@H](Cc1c[nH]c2ccccc12)NC(=O)[C@H](CCCN=C(N)N)NC(=O)[C@@H](N)CCCN=C(N)N)C(=O)N[C@@H](CCCN=C(N)N)C(=O)N[C@@H](CCCCN)C(=O)N[C@@H](Cc1ccc(O)cc1)C(=O)N[C@@H](CCCN=C(N)N)C(=O)N[C@@H](CCCN=C(N)N)C(N)=O` [RRWQRNIRKYRR] was tested. Which MIC [27] did it give?
**A.** ≥ 140 µM
